Earlier results on 8 molecules are cited in patent US20250134875A1, “FORMULATIONS OF ALK-5 KINASE INHIBITORS AND USES THEREOF” (Thirona Bio, Inc., priority 2023, published 2025).

The test system of data set [1] is mouse fibroblasts and fat precursor cells. The note with it: cited from earlier work.
Data set [2] relates to TGF-β-induced expression of ACTA2, Col1a1 and Col3a1. Conditions: 3D culture model of DC-specimens; cited from earlier work.
For another data set, the system named is TGF-β. Conditions: cited from earlier work.
A further data set deals with mouse skin. The note with it: cited from earlier work.
The subject of data set [3] is human outer root sheath cells. The note with it: cited from earlier work.
The next data set deals with A549 cells. Conditions: cited from earlier work.
Data set [4] has as its system fibroblasts derived from human PD plaque. Conditions: cited from earlier work.
A further data set has as its system rat PD models. Conditions: cited from earlier work.
The target in a further data set is T1, TNF (Homo sapiens, UniProt P01375).
T1 construct: host or cells: Dupuytren's nodules of patients (in vivo, endogenous)
The note with it: cited from earlier work.

T1 sequence (P01375 77-233 limits assumed): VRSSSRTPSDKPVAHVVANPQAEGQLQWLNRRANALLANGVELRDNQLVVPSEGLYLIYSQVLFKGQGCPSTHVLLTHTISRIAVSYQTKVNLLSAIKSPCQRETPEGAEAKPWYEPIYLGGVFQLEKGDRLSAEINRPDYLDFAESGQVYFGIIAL

As for `COc1ccc(/C=C/C(=O)Nc2ccccc2C(=O)O)cc1OC` [Tanilast], the Brown fat adipogenesis result in data set [1] is listed as “induced brown fat adipogenesis”.
Take `NC(=O)c1ccc(-c2nc(-c3ccc4c(c3)OCO4)c(-c3ccccn3)[nH]2)cc1` [SB-431542]: the “TGF-β-induced expression of ACTA2, Col1a1 and Col3a1” value in [2] was “suppressed”. In [1], the Brown fat adipogenesis result is reported as “induced brown fat adipogenesis”.
As to `Cc1cccc(-c2nn(C(=S)Nc3ccccc3)cc2-c2ccnc3ccccc23)n1` [Formulation A83-01], the Brown fat adipogenesis result in data set [1] is listed as “induced brown fat adipogenesis”.
Consider “fresolimumab: TGF-β neutralizing antibody which targets all three TGF-β isoforms”, for which the “Clinical skin disease (fibrosis), modified Rodnan skin score (MRSS)” value in the data set on TGF-β (systemic sclerosis patients (N=15), 1 mg/kg twice or 5 mg/kg once, p=0.0002 within 3 weeks) was “dramatically reversed”. Further, in the data set on TGF-β (systemic sclerosis patients), the “Pro-fibrotic TGF-β gene expression profiles in the skin” value was “decreased” and the Systemic side effects entry is recorded as “significant systemic side effects, notably bleeding”.
Take `Cc1cccc(-c2nn3c(c2-c2ccnc4ccc(C(N)=O)cc24)CCC3)n1` [LY2157299]: the Brown fat adipogenesis entry in data set [1] is given as “induced brown fat adipogenesis”.
On to `Cc1csc(-c2[nH]cnc2-c2ccc3ncsc3c2)n1` [TP0427736], for which, in the data set with mouse skin (repeated topical application), the “Average hair follicle length during transition from late anagen to catagen phase” value is “suppressed the shortening”. The “Smad2 phosphorylation in mouse skin” value in the data set with mouse skin (topical application) is “significantly decreased”. Also, in data set [3], the “Growth inhibition of human outer root sheath cells” value is “decreased the growth inhibition”. In addition, the Smad2/3 phosphorylation entry with A549 cells is “inhibited”.
Regarding `Cc1cccc(-c2[nH]c(Cc3cccc(C(N)=O)c3)nc2-c2ccc3nccnc3c2)n1` [IN-1130], the “TGF-β1-induced production of PAI-1, fibronectin, collagen 1 and collagen 4” value in data set [4] is “significantly reduced”. For the same molecule, the Curvature and fibrosis result in the data set with rat PD models is “improved curvature and fibrosis”.
Regarding adalimumab, the Phenotype of myofibroblasts result on TNF (Phase 2a trial, intranodular) is on record as “downregulated the phenotype of myofibroblasts”. In addition, the “Nodule harness and size by ultrasound” value on TNF (Phase 2b trial) is “decreased nodule harness and size”.
